The NIST ThermoML archive (doi:10.1016/j.fluid.2018.04.025)

Assay: xn = mol fraction of the nth substance listed
Settings: 101 kPa, Liquid; for viscosity: Falling or rolling sphere viscometry; for speed of sound: Frequency=3 MHz, Sing-around technique in a fixed-path interferometer; for mass density: Vibrating tube method

CCCC[n+]1ccn(C)c1.O=S(=O)([N-]S(=O)(=O)C(F)(F)F)C(F)(F)F + CCCCO
Settings	mass density [kg/m3]	speed of sound [m/s]	viscosity [mPa·s]
298.15 K, x1 = 0.1041	977.145	1204.1	4.37
298.15 K, x1 = 0.203	1088.59	1195.1	6.8
298.15 K, x1 = 0.3026	1170.97	1196.1	9.05
298.15 K, x1 = 0.409	1238.03	1200.2	11.83
298.15 K, x1 = 0.4987	1282.27	1204.3	14.91
298.15 K, x1 = 0.603	1325.15	1209.3	19.73
298.15 K, x1 = 0.6973	1357.81	1214.1	24.95
298.15 K, x1 = 0.809	1390.36	1219.2	32.11
298.15 K, x1 = 0.9104	1415.6	1223	40.26
298.15 K, x1 = 1	1436.02	1227.3	51.22
303.15 K, x1 = 0.1041	972.795	1189.7	3.85
303.15 K, x1 = 0.203	1084	1181.7	5.85
303.15 K, x1 = 0.3026	1166.33	1183.4	7.68
303.15 K, x1 = 0.409	1233.48	1188.1	9.93
303.15 K, x1 = 0.4987	1277.72	1192.4	12.53
303.15 K, x1 = 0.603	1320.71	1197.7	16.62
303.15 K, x1 = 0.6973	1353.3	1202.5	20.95
303.15 K, x1 = 0.809	1385.78	1207.8	26.73
303.15 K, x1 = 0.9104	1411.02	1211.9	33.01
303.15 K, x1 = 1	1431.22	1216.3	41.91
308.15 K, x1 = 0.1041	968.785	1175.3	3.27
308.15 K, x1 = 0.203	1079.65	1168.5	5.03
308.15 K, x1 = 0.3026	1161.89	1170.8	6.62
308.15 K, x1 = 0.409	1228.96	1176	8.51
308.15 K, x1 = 0.4987	1273.42	1180.7	10.71
308.15 K, x1 = 0.603	1316.29	1186.2	14.13
308.15 K, x1 = 0.6973	1348.83	1191.2	17.82
308.15 K, x1 = 0.809	1381.24	1196.7	22.61
308.15 K, x1 = 0.9104	1406.45	1200.9	27.62
308.15 K, x1 = 1	1426.43	1205.5	34.63
313.15 K, x1 = 0.1041	964.582	1161	2.87
313.15 K, x1 = 0.203	1075.17	1155.3	4.39
313.15 K, x1 = 0.3026	1157.28	1158.3	5.75
313.15 K, x1 = 0.409	1224.36	1163.9	7.36
313.15 K, x1 = 0.4987	1268.95	1168.9	9.24
313.15 K, x1 = 0.603	1311.81	1174.7	12.24
313.15 K, x1 = 0.6973	1344.2	1180	15.31
313.15 K, x1 = 0.809	1376.73	1185.6	19.32
313.15 K, x1 = 0.9104	1401.97	1189.9	23.41
313.15 K, x1 = 1	1421.64	1194.7	28.93
318.15 K, x1 = 0.1041	960.208	1146.9	2.53
318.15 K, x1 = 0.203	1070.62	1142.3	3.86
318.15 K, x1 = 0.3026	1152.59	1145.8	5.04
318.15 K, x1 = 0.409	1219.7	1151.9	6.42
318.15 K, x1 = 0.4987	1264.59	1157.2	8.04
318.15 K, x1 = 0.603	1307.37	1163.4	10.61
318.15 K, x1 = 0.6973	1339.66	1168.8	13.32
318.15 K, x1 = 0.809	1372.24	1174.6	16.64
318.15 K, x1 = 0.9104	1397.35	1179.1	19.93
318.15 K, x1 = 1	1416.84	1184	24.63
323.15 K, x1 = 0.1041	955.94	1132.9	2.24
323.15 K, x1 = 0.203	1065.98	1129.4	3.42
323.15 K, x1 = 0.3026	1147.85	1133.5	4.45
323.15 K, x1 = 0.409	1214.91	1140	5.65
323.15 K, x1 = 0.4987	1259.97	1145.7	7.07
323.15 K, x1 = 0.603	1302.8	1152.1	9.29
323.15 K, x1 = 0.6973	1335.11	1157.8	11.74
323.15 K, x1 = 0.809	1367.53	1163.8	14.53
323.15 K, x1 = 0.9104	1392.5	1168.4	17.32
323.15 K, x1 = 1	1411.89	1173.5	21.11

CCCC[n+]1ccn(C)c1.O=S(=O)([N-]S(=O)(=O)C(F)(F)F)C(F)(F)F + CCCO
Settings	mass density [kg/m3]	speed of sound [m/s]	viscosity [mPa·s]
298.15 K, x1 = 0.1034	997.935	1181.5	3.73
298.15 K, x1 = 0.203	1117.34	1181.2	5.98
298.15 K, x1 = 0.3043	1200.89	1188.3	8.11
298.15 K, x1 = 0.409	1263.74	1196.8	10.82
298.15 K, x1 = 0.5068	1308.36	1203	14.12
298.15 K, x1 = 0.603	1343.44	1209.4	19.03
298.15 K, x1 = 0.6981	1371.86	1214.5	24.41
298.15 K, x1 = 0.809	1399.1	1219.9	31.43
298.15 K, x1 = 0.8925	1416.56	1223.7	39.52
298.15 K, x1 = 1	1436.02	1227.3	51.22
303.15 K, x1 = 0.1034	993.513	1167.2	3.24
303.15 K, x1 = 0.203	1112.85	1168	5.16
303.15 K, x1 = 0.3043	1196.18	1175.7	6.94
303.15 K, x1 = 0.409	1259	1184.7	9.22
303.15 K, x1 = 0.5068	1303.62	1191.2	11.91
303.15 K, x1 = 0.603	1338.71	1197.8	16.24
303.15 K, x1 = 0.6981	1367.11	1203.2	20.52
303.15 K, x1 = 0.809	1394.38	1208.6	26.11
303.15 K, x1 = 0.8925	1411.81	1212.6	32.53
303.15 K, x1 = 1	1431.22	1216.3	41.91
308.15 K, x1 = 0.1034	989.047	1152.9	2.85
308.15 K, x1 = 0.203	1108.26	1154.8	4.5
308.15 K, x1 = 0.3043	1191.48	1163.1	6.01
308.15 K, x1 = 0.409	1254.22	1172.6	7.94
308.15 K, x1 = 0.5068	1298.84	1179.5	10.21
308.15 K, x1 = 0.603	1333.94	1186.3	13.72
308.15 K, x1 = 0.6981	1362.35	1191.8	17.43
308.15 K, x1 = 0.809	1389.63	1197.5	22.13
308.15 K, x1 = 0.8925	1407.06	1201.6	27.21
308.15 K, x1 = 1	1426.43	1205.5	34.63
313.15 K, x1 = 0.1034	984.572	1138.7	2.53
313.15 K, x1 = 0.203	1103.58	1141.7	3.95
313.15 K, x1 = 0.3043	1186.72	1150.7	5.25
313.15 K, x1 = 0.409	1249.43	1160.6	6.9
313.15 K, x1 = 0.5068	1294.03	1167.8	8.85
313.15 K, x1 = 0.603	1329.15	1175	11.93
313.15 K, x1 = 0.6981	1357.57	1180.7	14.94
313.15 K, x1 = 0.809	1384.85	1186.4	18.72
313.15 K, x1 = 0.8925	1402.29	1190.7	22.94
313.15 K, x1 = 1	1421.64	1194.7	28.93
318.15 K, x1 = 0.1034	979.997	1124.5	2.27
318.15 K, x1 = 0.203	1098.85	1128.7	3.69
318.15 K, x1 = 0.3043	1181.93	1138.3	4.84
318.15 K, x1 = 0.409	1244.67	1148.8	6.15
318.15 K, x1 = 0.5068	1289.19	1156.3	7.74
318.15 K, x1 = 0.603	1324.35	1163.7	10.34
318.15 K, x1 = 0.6981	1352.76	1169.5	13.01
318.15 K, x1 = 0.809	1380.05	1175.5	16.35
318.15 K, x1 = 0.8925	1397.5	1180	19.74
318.15 K, x1 = 1	1416.84	1184	24.63
323.15 K, x1 = 0.1034	975.381	1110.5	2.03
323.15 K, x1 = 0.203	1094.03	1115.8	2.98
323.15 K, x1 = 0.3043	1177.02	1126	3.93
323.15 K, x1 = 0.409	1239.67	1137	5.25
323.15 K, x1 = 0.5068	1284.24	1144.8	6.82
323.15 K, x1 = 0.603	1319.4	1152.6	9.13
323.15 K, x1 = 0.6981	1347.82	1158.6	11.42
323.15 K, x1 = 0.809	1375.13	1164.6	14.23
323.15 K, x1 = 0.8925	1392.58	1169.3	17.01
323.15 K, x1 = 1	1411.89	1173.5	21.11
